pIC50: −log10 of the molar value.
How the values were obtained:
human TRPV1 [1] = molecular target: T1, human TRPV1 (Homo sapiens (Human), UniProt Q8NER1); test: Capsaicin Activation Assay (intracellular Ca2+, FLIPR); assay type: cell-based; conditions: recombinant HEK293 cells expressing hTRPV1, 50 nM capsaicin
Experimental: (Logan, Utah). Dulbecco's phosphate-buffered saline (D-PBS) (with 1 mg/mL glucose and 3.6 mg/l Na pyruvate, without phenol red), L-glutamine, hygromycin B, and Lipofectamine® were obtained from Life Technologies (Grand Island, N.Y.). G418 sulfate was obtained from Calbiochem-Novabiochem Corp. (San Diego, Calif.). […] (St. Louis, Mo.). […] The cDNA for human TRPV1 (hTRPV1) was isolated by reverse transcriptase-polymerase chain reaction (RT-PCR) from human small intestine poly A+ RNA supplied by Clontech (Palo Alto, Calif.) using primers designed surrounding the initiation and termination codons identical to the published sequences (Hayes et al. […] The resulting cDNA PCR products were subcloned into pCIneo mammalian expression vector (Promega) and fully sequenced using fluorescent dye-terminator reagents (Prism, PerkinElmer Applied Biosystems Division) and a PerkinElmer Applied Biosystems Model 373 DNA sequencer or Model 310 genetic analyzer. Expression plasmids encoding the hTRPV1 cDNA were transfected into HEK293 cells using Lipofectamine®. Forty-eight hours after transfection, the neomycin-resistant cells were selected with growth medium containing 800 μg/mL Geneticin (Life Technologies, formerly Gibco BRL). Surviving individual colonies were isolated and screened for TRPV1 activity. […] Compound stocks, 10 mM, were prepared in DMSO, and diluted serially across a 384-well plate using a Bravo BenchCel workstation (Agilent Technologies, Santa Clara, Calif.). […] On the day prior to the experiment, the recombinant HEK293 cells expressing human TRPV1 (hTRPV1) were removed from tissue culture flasks and plated in growth medium into black-walled clear-bottom 384-well Biocoat™ poly-D-lysine assay plates (BD Biosciences, Bedford, Mass.) using a Multidrop® dispenser (ThermoScientific, Waltham, Mass.). […] Molecular Devices, Sunnyvale, Calif.) was added to each well using the Multidrop® dispenser. […] Fluorescence readings were made at 1 to 5 second intervals over the course of the experimental run.

human TRPV1 [2] = molecular target: T1, human TRPV1; test: Acid Activation Assay (pH 5.0, intracellular Ca2+, FLIPR); assay type: cell-based; conditions: percentage of the maximal pH 5.0-induced response remaining; recombinant HEK293 hTRPV1 cells; maximum concentration tested 37.5 μM
Experimental: Dulbecco's modified Eagle's medium (DMEM) with 4.5 m g/mL D-glucose, fetal bovine serum, L-glutamine, and 2-morpholinoethanesulfonic acid (MES) were purchased from Sigma-Aldrich Co. (St. Louis, Mo.). Dulbecco's phosphate-buffered saline (DPBS) with Ca^2+, Mg^2+, and 1 mg/mL D-glucose (pH 7.4), Geneticin®, 0.25% trypsin-1 mM EDTA, and penicillin-streptomycin were purchased from Invitrogen Corp. (Carlsbad, Calif.). The FLIPR® Calcium 4 assay kit was purchased from Molecular Devices (Sunnyvale, Calif.).
The cDNA for human TRPV1 (hTRPV1) was isolated by reverse transcriptase-polymerase chain reaction (RT-PCR) from human small intestine poly A+ RNA supplied by Clontech (Palo Alto, Calif.) using primers designed surrounding the initiation and termination codons identical to the published sequences (Hayes et al. Pain 2000, 88, 205-215). The resulting cDNA PCR products were subcloned into pCIneo mammalian expression vector (Promega) and fully sequenced using fluorescent dye-terminator reagents (Prism, PerkinElmer Applied Biosystems Division) and a PerkinElmer Applied Biosystems Model 373 DNA sequencer or Model 310 genetic analyzer. Expression plasmids encoding the hTRPV1 cDNA were transfected into HEK293 cells using Lipofectamine®. Forty-eight hours after transfection, the neomycin-resistant cells were selected with growth medium containing 800 μg/mL Geneticin (Life Technologies, formerly Gibco BRL). Surviving individual colonies were isolated and screened for TRPV1 activity. Cells expressing recombinant TRPV1 were maintained at 37° C. in DMEM containing 4 mM L-glutamine, 300 μg/mL G418 (Calbiochem) and 10% fetal bovine serum under a humidified 5% CO2 atmosphere.
The functional activity of compounds at the TRPV1 receptor was determined by measurement of intracellular Ca^2+ levels ([Ca^2+]i) using the Fluorescence Imaging Plate Reader (FLIPR)TETRA®. All compounds were tested over a 12-point one-half-log concentration range with 37.5 μM being the maximum concentration tested. Compound stocks, 10 mM, were prepared in DMSO, and diluted serially across a 384-well plate using a Bravo BenchCel workstation (Agilent Technologies, Santa Clara, Calif.). On the day prior to the experiment, the recombinant HEK293 cells expressing human TRPV1 (hTRPV1) were removed from tissue culture flasks and plated in growth medium into black-walled clear-bottom 384-well Biocoat™ poly-D-lysine assay plates (BD Biosciences, Bedford, Mass.) using a Multidrop® dispenser (ThermoScientific, Waltham, Mass.). On the day of the experiment growth medium was removed, and the no-wash FLIPR® Calcium-4 dye (λEX=470-495 nm, λEM=515-575 nm) was added to each well using the Multidrop® dispenser. The plated cells were incubated for 90-120 min in the dark at 25° C. The test compounds dissolved in DMSO were then added to the plates using an Agilent Bravo workstation (Agilent Technologies Inc., Santa Clara, Calif.). Three minutes later, a pH 5.0 solution was added to each well. Reagents were delivered at a rate of 40 μL/sec, and the final assay volume was 80 μL. Acidic pH solutions were prepared by titration of DPBS/MES with 1 N HCl. The intensity of the fluorescence was captured and digitally transferred to an interfaced PC. The maximum peak measured for the concentration range tested was used to calculate the corresponding peak increase in fluorescence over baseline (relative fluorescence units) which was expressed as the percentage (max % remain) of the maximal pH 5.0-induced response.
Table 1 reports the percentage (max % remain) of the maximal pH 5.0-induced response measured for the compounds tested in the recombinant HEK293 cell assay. Most of the compounds tested inhibited calcium flux only partially following TRPV1 activation by the pH 5.0 solution.

T1 sequence (Q8NER1 whole entry): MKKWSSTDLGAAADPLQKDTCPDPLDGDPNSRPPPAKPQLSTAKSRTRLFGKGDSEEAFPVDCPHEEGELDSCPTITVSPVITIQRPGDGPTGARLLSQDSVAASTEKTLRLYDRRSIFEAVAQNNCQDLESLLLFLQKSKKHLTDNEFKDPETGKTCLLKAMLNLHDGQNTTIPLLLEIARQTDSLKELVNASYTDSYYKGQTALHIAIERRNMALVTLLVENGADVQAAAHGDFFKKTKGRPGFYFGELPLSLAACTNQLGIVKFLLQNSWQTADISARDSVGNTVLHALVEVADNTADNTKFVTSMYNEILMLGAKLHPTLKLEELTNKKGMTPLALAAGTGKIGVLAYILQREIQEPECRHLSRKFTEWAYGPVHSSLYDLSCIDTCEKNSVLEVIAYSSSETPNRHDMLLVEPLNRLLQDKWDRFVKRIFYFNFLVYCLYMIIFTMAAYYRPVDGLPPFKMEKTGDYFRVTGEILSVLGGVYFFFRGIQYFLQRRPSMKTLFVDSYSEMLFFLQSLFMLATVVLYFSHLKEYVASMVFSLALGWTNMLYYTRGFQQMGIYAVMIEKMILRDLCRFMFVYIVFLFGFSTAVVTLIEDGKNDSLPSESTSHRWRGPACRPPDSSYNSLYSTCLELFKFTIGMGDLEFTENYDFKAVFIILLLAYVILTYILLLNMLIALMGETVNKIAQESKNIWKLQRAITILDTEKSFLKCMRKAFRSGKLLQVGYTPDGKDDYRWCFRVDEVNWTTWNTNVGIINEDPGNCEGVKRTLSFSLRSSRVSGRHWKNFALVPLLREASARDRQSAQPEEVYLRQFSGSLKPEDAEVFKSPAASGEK

Row | SMILES | pIC50 (human TRPV1 [1]) | human TRPV1 H^+ (max % remain) (human TRPV1 [2])
1 | CCC1(CC)C[C@@H](NC(=O)Nc2ccc3c(c2)NC(=O)N(CCO)C3)c2ccc(Cl)cc2O1 [Example 47, 1-[(4R)-7-chloro-2,2-diethyl-3,4-dihydro-2H-chromen-4-yl]-3-[3-(2-hydroxyethyl)-2-oxo-1,2,3,4-tetrahydroquinazolin-7-yl]urea] | 6.77 | 0%
2 | CC1(C)C[C@@H](NC(=O)Nc2ccc3c(c2)NC(=O)N(CCO)C3)c2ccc(C(F)(F)F)cc2O1 [Example 48, 1-[(4R)-2,2-dimethyl-7-(trifluoromethyl)-3,4-dihydro-2H-chromen-4-yl]-3-[3-(2-hydroxyethyl)-2-oxo-1,2,3,4-tetrahydroquinazolin-7-yl]urea] | 7.68 | 1%
3 | O=C(Nc1ccc2c(c1)NC(=O)N(CCO)C2)N[C@@H]1CC(CF)(CF)Oc2ccc(F)cc21 [Example 49, 1-[(4R)-6-fluoro-2,2-bis(fluoromethyl)-3,4-dihydro-2H-chromen-4-yl]-3-[3-(2-hydroxyethyl)-2-oxo-1,2,3,4-tetrahydroquinazolin-7-yl]urea] | 5.21 | 8%
4 | CCC1(CC)C[C@@H](NC(=O)Nc2ccc3c(c2)NC(=O)N(CCO)C3)c2cc(F)ccc2O1 [Example 50, 1-[(4R)-2,2-diethyl-6-fluoro-3,4-dihydro-2H-chromen-4-yl]-3-[3-(2-hydroxyethyl)-2-oxo-1,2,3,4-tetrahydroquinazolin-7-yl]urea] | 7.35 | 0%
5 | CC1(C)C[C@@H](NC(=O)Nc2ccc3c(c2)NC(=O)N(CCO)C3)c2cc(F)ccc2O1 [Example 51, 1-[(4R)-6-fluoro-2,2-dimethyl-3,4-dihydro-2H-chromen-4-yl]-3-[3-(2-hydroxyethyl)-2-oxo-1,2,3,4-tetrahydroquinazolin-7-yl]urea] | 6.48 | 10%
6 | O=C(Nc1ccc2c(c1)NC(=O)N(CCO)C2)N[C@@H]1CCOc2ccc(F)cc21 [Example 52, 1-[(4R)-6-fluoro-3,4-dihydro-2H-chromen-4-yl]-3-[3-(2-hydroxyethyl)-2-oxo-1,2,3,4-tetrahydroquinazolin-7-yl]urea] | 6.02 | 32%
7 | O=C(Nc1ccc2c(c1)NC(=O)N(CCO)C2)N[C@@H]1CCOc2c1cccc2C(F)(F)F [Example 53, 1-[3-(2-hydroxyethyl)-2-oxo-1,2,3,4-tetrahydroquinazolin-7-yl]-3-[(4R)-8-(trifluoromethyl)-3,4-dihydro-2H-chromen-4-yl]urea] | 5.74 | 1%
8 | O=C(Nc1ccc2c(c1)NC(=O)N(CCO)C2)N[C@@H]1CCOc2cc(C(F)(F)F)ccc21 [Example 54, 1-[3-(2-hydroxyethyl)-2-oxo-1,2,3,4-tetrahydroquinazolin-7-yl]-3-[(4R)-7-(trifluoromethyl)-3,4-dihydro-2H-chromen-4-yl]urea] | 6.59 | 1%
9 | O=C(Nc1ccc2c(c1)NC(=O)N(CCO)C2)N[C@@H]1CCc2cc(F)ccc21 [Example 55, 1-[(1R)-5-fluoro-2,3-dihydro-1H-inden-1-yl]-3-[3-(2-hydroxyethyl)-2-oxo-1,2,3,4-tetrahydroquinazolin-7-yl]urea] | 5.14 | 36%
10 | O=C(Nc1ccc2c(c1)NC(=O)N(CCO)C2)N[C@H]1CC2(CCC2)Oc2ccc(F)cc21 [Example 56, 1-[(4S)-6-fluoro-3,4-dihydrospiro[chromene-2,1′-cyclobutan]-4-yl]-3-[3-(2-hydroxyethyl)-2-oxo-1,2,3,4-tetrahydroquinazolin-7-yl]urea] | 6.15 | 67%
11 | CC1(C)C[C@H](NC(=O)Nc2ccc3c(c2)NC(=O)N(CCO)C3)c2cc(F)ccc2O1 [Example 57, 1-[(4S)-6-fluoro-2,2-dimethyl-3,4-dihydro-2H-chromen-4-yl]-3-[3-(2-hydroxyethyl)-2-oxo-1,2,3,4-tetrahydroquinazolin-7-yl]urea] | 6.42 | 43%
12 | C[C@@]1(CF)C[C@@H](NC(=O)Nc2ccc3c(c2)NC(=O)N(CCO)C3)c2ccc(C(F)(F)F)cc2O1 [Example 58, 1-[(2S,4R)-2-(fluoromethyl)-2-methyl-7-(trifluoromethyl)-3,4-dihydro-2H-chromen-4-yl]-3-[3-(2-hydroxyethyl)-2-oxo-1,2,3,4-tetrahydroquinazolin-7-yl]urea] | 7.20 | 2%
13 | C[C@@]1(CF)C[C@@H](NC(=O)Nc2ccc3c(c2)NC(=O)N(CCO)C3)c2ccc(Cl)cc2O1 [Example 59, 1-[(2S,4R)-7-chloro-2-(fluoromethyl)-2-methyl-3,4-dihydro-2H-chromen-4-yl]-3-[3-(2-hydroxyethyl)-2-oxo-1,2,3,4-tetrahydroquinazolin-7-yl]urea] | 5.82 | 2%
14 | C[C@]1(C(F)F)C[C@@H](NC(=O)Nc2ccc3c(c2)NC(=O)N(CCO)C3)c2ccccc2O1 [Example 60, 1-[(2R,4R)-2-(difluoromethyl)-2-methyl-3,4-dihydro-2H-chromen-4-yl]-3-[3-(2-hydroxyethyl)-2-oxo-1,2,3,4-tetrahydroquinazolin-7-yl]urea] | 5.89 | 9%
15 | CC1(C)C[C@@H](NC(=O)Nc2ccc3c(c2)NC(=O)N(CCO)C3)c2ccc(Cl)c(F)c2O1 [Example 61, 1-[(4R)-7-chloro-8-fluoro-2,2-dimethyl-3,4-dihydro-2H-chromen-4-yl]-3-[3-(2-hydroxyethyl)-2-oxo-1,2,3,4-tetrahydroquinazolin-7-yl]urea] | 5.92 | 2%
16 | CC1(C)C[C@@H](NC(=O)Nc2ccc3c(c2)NC(=O)N(CCO)C3)c2ccc(C(F)(F)F)nc2O1 [Example 62, 1-[(4R)-2,2-dimethyl-7-(trifluoromethyl)-3,4-dihydro-2H-pyrano[2,3-b]pyridin-4-yl]-3-[3-(2-hydroxyethyl)-2-oxo-1,2,3,4-tetrahydroquinazolin-7-yl]urea] | 5.82 | 9%
17 | CC1(C)C[C@@H](NC(=O)Nc2ccc3c(c2)NC(=O)N(CCO)C3)c2ccc(Br)cc2O1 [Example 63, 1-[(4R)-7-bromo-2,2-dimethyl-3,4-dihydro-2H-chromen-4-yl]-3-[3-(2-hydroxyethyl)-2-oxo-1,2,3,4-tetrahydroquinazolin-7-yl]urea] | 7.01 | 3%

From US8969325B2, “TRPV1 antagonists” (AbbVie Inc., priority 2011, dated 2015)
